Two molecules from patent publication US20240398737A1, “FUNCTIONALIZED LONG-CHAIN HYDROCARBON MONO- AND DI-CARBOXYLIC ACIDS AND DERIVATIVES THEREOF, AND THEIR USE FOR THE PREVENTION OR TREATMENT OF DISEASE” (Espervita Therapeutics, Inc., priority 2021, published 2024) can be followed below.

Holding throughout (format): biochemical
The target in one assay is AURORA C (Homo sapiens (Human), UniProt Q9UQB9). As to the kind of experiment: Wild type kinase screen: AURORA C. The settings on record: compound at 10 μM, 10 μM ATP, Data 1 and Data 2 duplicates.
Another assay concerns the target RIPK4 (Homo sapiens (Human), UniProt P57078). As to the kind of experiment: Wild type kinase screen: RIPK4. The settings on record: compound at 10 μM, 10 μM ATP, Data 1 and Data 2 duplicates.
The target in another assay is LIMK1 (Homo sapiens (Human), UniProt P53667). The assay is described as follows: Wild type kinase screen: LIMK1. The settings on record: compound at 10 μM, 10 μM ATP, Data 1 and Data 2 duplicates.
Chain of LIMK1 (P53667 whole entry, species assumed): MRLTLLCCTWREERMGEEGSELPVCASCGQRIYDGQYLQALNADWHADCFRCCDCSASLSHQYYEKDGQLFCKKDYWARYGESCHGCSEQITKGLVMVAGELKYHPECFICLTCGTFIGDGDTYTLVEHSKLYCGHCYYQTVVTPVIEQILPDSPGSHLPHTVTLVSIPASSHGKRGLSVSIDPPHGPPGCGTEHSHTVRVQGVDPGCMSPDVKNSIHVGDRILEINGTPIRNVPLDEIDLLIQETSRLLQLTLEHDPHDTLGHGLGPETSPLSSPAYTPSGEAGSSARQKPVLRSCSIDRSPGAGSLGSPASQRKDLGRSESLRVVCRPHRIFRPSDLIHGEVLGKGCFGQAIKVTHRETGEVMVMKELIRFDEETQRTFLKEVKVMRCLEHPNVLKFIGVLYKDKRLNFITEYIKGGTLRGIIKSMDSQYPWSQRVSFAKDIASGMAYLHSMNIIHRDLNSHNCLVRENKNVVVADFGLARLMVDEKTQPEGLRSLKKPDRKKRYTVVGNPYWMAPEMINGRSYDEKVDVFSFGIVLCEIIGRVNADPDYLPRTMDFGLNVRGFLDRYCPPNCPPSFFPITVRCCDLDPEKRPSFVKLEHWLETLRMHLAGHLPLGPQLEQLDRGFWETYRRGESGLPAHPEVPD
In another assay the target is MLCK/MYLK (Homo sapiens (Human), UniProt Q15746). As to the kind of experiment: Wild type kinase screen: MLCK/MYLK. The settings on record: compound at 10 μM, 10 μM ATP, Data 1 and Data 2 duplicates.
The target of another assay is Aurora A (Homo sapiens (Human), UniProt O14965). As to the kind of experiment: Wild type kinase screen: Aurora A. The settings on record: compound at 10 μM, 10 μM ATP, Data 1 and Data 2 duplicates.
The target in another assay is Human ACC2 (Homo sapiens (Human), UniProt O00763). The assay is described as follows: ACC2 enzymatic assay (ADP-Glo). The settings on record: recombinant human ACC2 1 nM; 10 concentrations from 300 μM; Runs 1-3; read-out: Compound IC50 (M) ACC2. As to the method:
(§1) Human ACC1 (Cat #50202 Lot #120830) and ACC2 (Cat #50201 Lot #160217) were obtained from BPS Biosciences, San Diego, CA 92121. Human ACC1 had C-terminal flag and His-tags with a MW of 270 KDa after purification from Baculovirus infected Sf9 cell expression system and came as a solution in 50 mM Tris-HCl, pH 8.0, 500 mM NaCl, 10% glycerol, 1 mM DTT, 100 μg/ml FLAG peptide with 70% purity. The stock concentration was 0.25 mg/ml corresponding to 0.926 μM. Human ACC2 was also purified from Baculovirus infected Sf9 expression system. […] The stock concentration was 0.1 mg/ml corresponding to 0.36 μM. The assay buffer for measuring the activity of ACC contained: 30 mM HEPES (pH 7.4), 2 mM MgCl2, 0.01% Brij35, 2 mM DTT, 1% DMSO (solvent for compound). For ACC1 and ACC2 assays, the following concentrations of substrate and cofactors were used: 12 mM NaHCO3, 10 μM acetyl CoA, 10 μM ATP, and 2 mM K-citrate. The recombinant human enzyme was used at 5 nM for ACC1 and 1 nM for ACC2. In brief, enzyme alone in the above buffer without substrate was used for background. All test materials were dissolved in 100% DMSO using acoustic technology (Echo550). The prepared solution was preincubated for 15 min followed by the addition of 5 μL/well of ADP standard. ATP was then added to start the reaction. The assay contents were spun and briefly shaken followed by incubation at room temperature for 1 h. At the end of completion of assay, 5 μL of ADP-Glo was added to each well to stop the reaction. The contents were mixed, spun and incubated at room temperature for 40 min followed by the addition of 10 μL/well of ADP detection reagent. The contents were spun, mixed and covered with plastic to measure luminescence. […] The light generated, measured in a luminometer, correlates to the amount of ADP generated in the ACC assay, which is indicative of ACC activity.
(§2) The enzyme concentrations for ACC1 and ACC2 were 5 nM and 1 nM, respectively.
Data represent nM or μM ADP produced, % Activity (relative to no inhibitor controls), and curve fits were performed by GraphPad Prism software. The IC50 concentration-response curves were generated for both the ACC1 and ACC2 assays using recombinant human ACC.
A general note: ADP-Glo turns the ADP formed in a reaction into a luminescent signal.

In a further assay the target is CAMK2g (Homo sapiens (Human), UniProt Q13555). The assay is described as follows: Wild type kinase screen: CAMK2g. The settings on record: compound at 10 μM, 10 μM ATP, Data 1 and Data 2 duplicates.
For a further assay, the target named is FLT1/VEGFR1 (Homo sapiens (Human), UniProt P17948). As to the kind of experiment: Wild type kinase screen: FLT1/VEGFR1. The settings on record: compound at 10 μM, 10 μM ATP, Data 1 and Data 2 duplicates.
For a further assay, the target named is TNIK (Homo sapiens (Human), UniProt Q9UKE5). As to the kind of experiment: Wild type kinase screen: TNIK. The settings on record: compound at 10 μM, 10 μM ATP, Data 1 and Data 2 duplicates.
Chain of TNIK (Q9UKE5 whole entry, species assumed): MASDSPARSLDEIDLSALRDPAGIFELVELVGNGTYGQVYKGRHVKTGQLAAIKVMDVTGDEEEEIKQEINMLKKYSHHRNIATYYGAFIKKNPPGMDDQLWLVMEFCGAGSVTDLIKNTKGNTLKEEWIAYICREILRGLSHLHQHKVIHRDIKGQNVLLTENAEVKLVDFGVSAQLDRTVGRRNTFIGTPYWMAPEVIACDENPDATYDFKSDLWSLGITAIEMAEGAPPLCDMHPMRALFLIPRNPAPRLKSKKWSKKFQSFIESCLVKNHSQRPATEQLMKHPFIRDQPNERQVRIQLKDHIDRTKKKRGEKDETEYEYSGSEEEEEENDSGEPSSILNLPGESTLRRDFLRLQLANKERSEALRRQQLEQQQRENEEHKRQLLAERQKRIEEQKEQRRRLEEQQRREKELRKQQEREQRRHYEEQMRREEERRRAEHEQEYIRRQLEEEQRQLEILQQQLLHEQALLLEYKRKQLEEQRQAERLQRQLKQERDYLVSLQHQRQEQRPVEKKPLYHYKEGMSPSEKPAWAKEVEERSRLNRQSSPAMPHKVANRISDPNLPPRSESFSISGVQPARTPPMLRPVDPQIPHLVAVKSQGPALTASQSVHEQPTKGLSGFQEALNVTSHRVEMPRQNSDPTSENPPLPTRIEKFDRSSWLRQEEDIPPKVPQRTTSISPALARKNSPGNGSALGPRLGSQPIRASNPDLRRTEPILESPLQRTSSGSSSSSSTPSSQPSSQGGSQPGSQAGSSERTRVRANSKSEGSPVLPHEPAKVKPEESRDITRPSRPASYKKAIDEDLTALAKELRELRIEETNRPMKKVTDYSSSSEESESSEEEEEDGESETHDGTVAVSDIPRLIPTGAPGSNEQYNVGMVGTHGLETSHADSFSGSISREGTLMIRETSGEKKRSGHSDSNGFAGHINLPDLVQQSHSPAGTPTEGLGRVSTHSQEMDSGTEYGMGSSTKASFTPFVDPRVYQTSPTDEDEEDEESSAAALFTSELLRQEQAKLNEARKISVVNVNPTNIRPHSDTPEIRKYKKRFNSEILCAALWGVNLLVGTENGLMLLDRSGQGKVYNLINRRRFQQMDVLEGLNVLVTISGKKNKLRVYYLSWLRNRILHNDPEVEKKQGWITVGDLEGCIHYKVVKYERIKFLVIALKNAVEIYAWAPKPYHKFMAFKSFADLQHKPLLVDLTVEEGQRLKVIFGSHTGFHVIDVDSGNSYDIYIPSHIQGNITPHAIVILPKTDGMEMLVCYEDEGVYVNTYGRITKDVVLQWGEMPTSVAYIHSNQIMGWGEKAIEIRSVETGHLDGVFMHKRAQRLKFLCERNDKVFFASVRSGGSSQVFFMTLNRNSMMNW
For a further assay, the target named is ERK7/MAPK15 (Homo sapiens (Human), UniProt Q8TD08). The assay is described as follows: Wild type kinase screen: ERK7/MAPK15. The settings on record: compound at 10 μM, 10 μM ATP, Data 1 and Data 2 duplicates.
The next assay concerns the target Aurora B (Homo sapiens (Human), UniProt Q96GD4). The assay is described as follows: Wild type kinase screen: Aurora B. The settings on record: compound at 10 μM, 10 μM ATP, Data 1 and Data 2 duplicates.
In another assay the target is MAPKAPK2 (Homo sapiens (Human), UniProt P49137). As to the kind of experiment: Wild type kinase screen: MAPKAPK2. The settings on record: compound at 10 μM, 10 μM ATP, Data 1 and Data 2 duplicates.
In another assay the target is GSK3b (Homo sapiens (Human), UniProt P49841). As to the kind of experiment: Wild type kinase screen: GSK3b. The settings on record: compound at 10 μM, 10 μM ATP, Data 1 and Data 2 duplicates.
Another assay deals with Human ACC1 (Homo sapiens (Human), UniProt Q13085). The assay is described as follows: ACC1 enzymatic assay (ADP-Glo). The settings on record: recombinant human ACC1 5 nM; 10 concentrations from 300 μM; Runs 1-3; read-out: Compound IC50 (M) ACC1. As to the method:
as §1, §2
Data represent nM or μM ADP produced, % Activity (relative to no inhibitor controls), and curve fits were performed by GraphPad Prism software. […]

The target of another assay is PIM3 (Homo sapiens (Human), UniProt Q86V86). The assay is described as follows: Wild type kinase screen: PIM3. The settings on record: compound at 10 μM, 10 μM ATP, Data 1 and Data 2 duplicates.
The target in another assay is BMX/ETK (Homo sapiens (Human), UniProt P51813). The assay is described as follows: Wild type kinase screen: BMX/ETK. The settings on record: compound at 10 μM, 10 μM ATP, Data 1 and Data 2 duplicates.
The next assay addresses MELK (Homo sapiens (Human), UniProt Q14680). The assay is described as follows: Wild type kinase screen: MELK. The settings on record: compound at 10 μM, 10 μM ATP, Data 1 and Data 2 duplicates.
The next assay concerns the target human ACLY (Homo sapiens (Human), UniProt P53396). The assay is described as follows: ATP-citrate lyase (ACLY) enzymatic assay (ADP-Glo). The settings on record: recombinant human ACLY; 10 concentrations from 300 μM; Runs 1-3; read-out: Compound IC50 (M) ACLY. As to the method:
ATP citrate lyase was obtained from Sino Biological Inc. Cat #11769-H07B, Lot #LC08DE1701. It was prepared from a DNA sequence encoding the human ACLY (P53396) (Met 1-Met 1101) expressed in Baculovirus-Insect Cells, with a polyhistidine tag at the N-terminus. The recombinant human ACLY consists of 1120 amino acids and has a calculated molecular mass of 123 kDa. It migrates as an approximately 110 kDa band in SDS-PAGE under reducing conditions. The enzyme came as a lyophilized powder in sterile 20 mM Tris, 500 mM NaCl, pH 8.0, 10% glycine. Normally 5%-8% trehalose and mannitol are added as protectants before lyophilization. The recombinant human ACLY from Sino Biological was formulated in 45 mM Tris-HCl, pH 8.0, 124 mM NaCl, 2.4 mM KCl, 18 mM glutathione, 10% glycerol, and 3 mM DTT.
To detect ADP produced from ACL assay, the ADP-Glo™ assay format from Promega, Madison, WI, was used, to detect the conversion of ATP to ADP. […] This assay is performed in two steps: i) after the ACL-mediated enzymatic reaction that utilizes ATP and produces ADP, ADP-Glo™ Reagent is added to terminate the kinase reaction and deplete the remaining ATP, and ii) the Kinase Detection Reagent is added to convert ADP to ATP and allow the newly synthesized ATP to be measured using a luciferase/luciferin reaction. The light generated, measured in a luminometer, correlates to the amount of ADP generated in the ACL assay, which is indicative of ACL activity.
Data represent nM or μM ADP produced, % Activity (relative to no inhibitor controls), and curve fits were performed by GraphPad Prism software. The IC50 concentration-response curves were generated for ADPGlo™ using recombinant human ACL from Sino Biologicals Inc.

The target in the next assay is NEK2 (Homo sapiens (Human), UniProt P51955). As to the kind of experiment: Wild type kinase screen: NEK2. The settings on record: compound at 10 μM, 10 μM ATP, Data 1 and Data 2 duplicates.
Chain of NEK2 (P51955 whole entry, species assumed): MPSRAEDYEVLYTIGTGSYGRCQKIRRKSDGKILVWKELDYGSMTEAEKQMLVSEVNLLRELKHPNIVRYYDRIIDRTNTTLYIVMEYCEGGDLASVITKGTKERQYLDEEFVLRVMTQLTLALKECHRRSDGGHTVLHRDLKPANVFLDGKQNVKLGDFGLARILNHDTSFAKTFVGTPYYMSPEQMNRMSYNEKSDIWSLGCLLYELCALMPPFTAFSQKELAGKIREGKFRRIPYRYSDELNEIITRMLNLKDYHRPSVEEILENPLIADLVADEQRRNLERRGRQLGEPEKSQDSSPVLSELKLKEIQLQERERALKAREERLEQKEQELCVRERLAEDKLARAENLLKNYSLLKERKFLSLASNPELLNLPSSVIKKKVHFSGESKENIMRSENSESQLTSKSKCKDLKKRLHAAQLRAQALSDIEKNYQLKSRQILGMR
The next assay addresses c-Kit (Homo sapiens (Human), UniProt P10721). As to the kind of experiment: Wild type kinase screen: c-Kit. The settings on record: compound at 10 μM, 10 μM ATP, Data 1 and Data 2 duplicates.
The target of the next assay is DDR2 (Homo sapiens (Human), UniProt Q16832). The assay is described as follows: Wild type kinase screen: DDR2. The settings on record: compound at 10 μM, 10 μM ATP, Data 1 and Data 2 duplicates.

“And” between values parts separate entries of the source, which are not always exact repeats. Equal entries are not always repeated.

Chain of Human ACC2 (O00763 whole entry): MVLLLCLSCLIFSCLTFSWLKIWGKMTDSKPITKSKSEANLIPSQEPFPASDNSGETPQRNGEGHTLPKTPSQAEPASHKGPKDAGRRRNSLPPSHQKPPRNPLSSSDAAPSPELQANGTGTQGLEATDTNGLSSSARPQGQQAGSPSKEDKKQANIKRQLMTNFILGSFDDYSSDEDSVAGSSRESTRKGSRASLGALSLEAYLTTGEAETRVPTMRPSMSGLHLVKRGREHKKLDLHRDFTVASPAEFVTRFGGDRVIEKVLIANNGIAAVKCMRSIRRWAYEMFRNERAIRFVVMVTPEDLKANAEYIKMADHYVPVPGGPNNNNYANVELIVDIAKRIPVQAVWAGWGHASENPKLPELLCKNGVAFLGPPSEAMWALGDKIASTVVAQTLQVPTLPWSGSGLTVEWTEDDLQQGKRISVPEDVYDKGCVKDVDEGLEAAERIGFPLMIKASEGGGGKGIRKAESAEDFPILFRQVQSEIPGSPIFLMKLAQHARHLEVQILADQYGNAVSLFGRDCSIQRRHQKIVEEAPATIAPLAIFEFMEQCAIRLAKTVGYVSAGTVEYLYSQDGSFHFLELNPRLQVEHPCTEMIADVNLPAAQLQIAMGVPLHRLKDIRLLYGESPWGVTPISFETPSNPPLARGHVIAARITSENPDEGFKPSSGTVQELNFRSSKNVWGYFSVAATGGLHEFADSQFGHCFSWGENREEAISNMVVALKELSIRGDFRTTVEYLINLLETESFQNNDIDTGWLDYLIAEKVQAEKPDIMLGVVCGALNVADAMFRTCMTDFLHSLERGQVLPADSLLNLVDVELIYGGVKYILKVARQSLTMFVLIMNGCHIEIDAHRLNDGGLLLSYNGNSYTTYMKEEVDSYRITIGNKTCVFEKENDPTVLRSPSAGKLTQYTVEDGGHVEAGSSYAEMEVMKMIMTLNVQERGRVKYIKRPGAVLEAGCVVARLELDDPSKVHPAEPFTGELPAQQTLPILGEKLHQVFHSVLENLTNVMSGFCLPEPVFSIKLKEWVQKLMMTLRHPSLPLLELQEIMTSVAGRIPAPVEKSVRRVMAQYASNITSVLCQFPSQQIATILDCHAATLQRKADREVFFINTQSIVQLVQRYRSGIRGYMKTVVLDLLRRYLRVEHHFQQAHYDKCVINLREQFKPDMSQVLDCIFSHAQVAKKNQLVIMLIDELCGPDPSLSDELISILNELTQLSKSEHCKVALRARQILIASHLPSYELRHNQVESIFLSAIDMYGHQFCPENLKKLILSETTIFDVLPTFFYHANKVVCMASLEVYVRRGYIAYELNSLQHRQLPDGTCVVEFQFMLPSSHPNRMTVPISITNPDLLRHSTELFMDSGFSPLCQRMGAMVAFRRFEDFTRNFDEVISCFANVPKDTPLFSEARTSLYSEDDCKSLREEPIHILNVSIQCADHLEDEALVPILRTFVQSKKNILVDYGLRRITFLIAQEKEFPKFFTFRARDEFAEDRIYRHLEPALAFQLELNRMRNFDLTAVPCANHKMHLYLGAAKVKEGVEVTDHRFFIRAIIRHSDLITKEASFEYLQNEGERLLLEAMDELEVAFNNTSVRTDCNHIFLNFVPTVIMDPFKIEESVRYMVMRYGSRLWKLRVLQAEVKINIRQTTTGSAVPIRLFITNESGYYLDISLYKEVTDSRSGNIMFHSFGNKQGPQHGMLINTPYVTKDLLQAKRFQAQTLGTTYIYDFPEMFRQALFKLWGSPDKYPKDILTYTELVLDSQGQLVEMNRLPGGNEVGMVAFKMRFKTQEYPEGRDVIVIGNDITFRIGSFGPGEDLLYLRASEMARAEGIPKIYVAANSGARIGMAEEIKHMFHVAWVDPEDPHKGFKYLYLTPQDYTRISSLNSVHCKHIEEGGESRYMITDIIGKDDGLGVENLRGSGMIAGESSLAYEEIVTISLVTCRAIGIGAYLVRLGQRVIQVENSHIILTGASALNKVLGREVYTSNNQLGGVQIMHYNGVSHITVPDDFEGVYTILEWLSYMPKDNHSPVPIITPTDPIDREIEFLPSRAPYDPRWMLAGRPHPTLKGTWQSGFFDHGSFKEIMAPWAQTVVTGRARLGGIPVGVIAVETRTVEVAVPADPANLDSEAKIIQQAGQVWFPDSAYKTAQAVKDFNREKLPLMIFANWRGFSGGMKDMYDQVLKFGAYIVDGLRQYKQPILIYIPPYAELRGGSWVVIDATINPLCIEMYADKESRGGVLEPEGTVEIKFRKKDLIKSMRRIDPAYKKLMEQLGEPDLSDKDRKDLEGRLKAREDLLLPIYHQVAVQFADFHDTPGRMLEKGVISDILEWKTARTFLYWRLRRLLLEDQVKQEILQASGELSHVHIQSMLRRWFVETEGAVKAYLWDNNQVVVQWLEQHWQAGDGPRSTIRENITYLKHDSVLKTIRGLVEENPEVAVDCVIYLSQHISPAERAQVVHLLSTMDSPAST

As a reminder, the IC50 is the concentration at which inhibition is half-maximal. For `CC(C)(CCCCc1ccc(CCCCC(C)(C)C(=O)SCCNC(=O)CCNC(=O)[C@H](O)C(C)(C)COP(=O)(O)OP(=O)(O)OC[C@H]2O[C@@H](n3cnc4c(N)ncnc43)[C@H](O)[C@@H]2OP(=O)(O)O)cc1)C(=O)O` [Compound I-1-CoA, 6-[4-(5-carboxy-5-methylhexyl)-phenyl]-2,2-dimethylhexanoic acid Coenzyme A ester], the “% Enzyme Activity (relative to DMSO controls)” value at AURORA C is 78.81% and 72.15%; on RIPK4, 32.26% and 29.70%; on LIMK1, 77.88% and 76.61%; at MLCK/MYLK, 2.06% and −0.71%; at Aurora A it was 12.44% and 12.42%; on CAMK2g, 53.91% and 53.05%. Further, the “% Enzyme Activity (relative to DMSO controls)” value at FLT1/VEGFR1 is 84.17% and 82.94%; on TNIK it was 39.22% and 36.50%; at ERK7/MAPK15, 51.57% and 45.02%; at Aurora B it was 36.79% and 32.68%; at MAPKAPK2 it was 85.04% and 84.66%; on GSK3b it was 63.29% and 62.44%. In addition, the “% Enzyme Activity (relative to DMSO controls)” value is 73.92% and 70.32% at PIM3; 49.55% and 47.76% at BMX/ETK; 23.02% and 21.99% at MELK; 0.89% and 0.63% at NEK2; 73.56% and 73.24% on c-Kit; 88.28% and 79.94% at DDR2. In addition, the IC50 on Human ACC2 is 9.41e-06 M and 7.72e-06 M and 9.06e-06 M; at Human ACC1, 1.63e-05 M and 1.33e-05 M and 1.25e-05 M; on human ACLY, 3.34e-06 M and 2.28e-06 M and 2.5e-06 M.
Consider `CC(C)(CCCCc1cccc(CCCCC(C)(C)C(=O)SCCNC(=O)CCNC(=O)[C@H](O)C(C)(C)COP(=O)(O)OP(=O)(O)OC[C@H]2O[C@@H](n3cnc4c(N)ncnc43)[C@H](O)[C@@H]2OP(=O)(O)O)c1)C(=O)O` [Compound I-32-CoA, 6-[3-(5—Carboxy-5-methylhexyl)-phenyl]-2,2-dimethylhexanoic acid Coenzyme A Ester], for which the “% Enzyme Activity (relative to DMSO controls)” value on AURORA C was 48.46% and 46.83%; on RIPK4, 33.02% and 32.84%; at LIMK1, 47.31% and 45.01%; on MLCK/MYLK, 3.21% and 1.59%; on Aurora A it was 13.04% and 11.95%; at CAMK2g it was 35.05% and 34.20%. Further, the “% Enzyme Activity (relative to DMSO controls)” value on FLT1/VEGFR1 is 52.06% and 51.61%; on TNIK it was 70.02% and 66.13%; on ERK7/MAPK15, 88.39% and 80.61%; on Aurora B it was 33.27% and 30.67%; at MAPKAPK2, 17.17% and 15.90%; at GSK3b, 23.69% and 22.51%. Further, the “% Enzyme Activity (relative to DMSO controls)” value was 51.10% and 43.67% at PIM3; 49.54% and 43.87% at BMX/ETK; 28.56% and 27.35% at MELK; 35.98% and 34.99% at NEK2; 49.53% and 49.21% at c-Kit; 29.98% and 25.40% on DDR2. Also, the IC50 was 5.02e-06 M and 4.22e-06 M and 3.33e-06 M on Human ACC2; 5.07e-06 M and 5e-06 M and 6.03e-06 M on Human ACC1; 9.88e-07 M and 1.22e-06 M and 1.44e-06 M at human ACLY.
